Experimental data as given in PubChem BioAssay AID1919017 (Molecular Pharmacology Branch, DTP, NCI, 2023).

Test system: SW1271 complex spheroids with HUVEC/MSC, growth, % test/control
Assay: Anticancer human tumor SW1271 cell line growth inhibition [AhR];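 also: spheroids exposed to agents for 7 days before readout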
Conditions: for IC50: curve of first compound; for viability, T/C: stronger effect = lower value
From the text: Multicellular complex tumor spheroid response to aryl hydrocarbon receptor antagonists in combination with a variety of drugs and investigational agents in selected tumor cell lines
The current study was undertaken to assess response to aryl hydrocarbon receptor antagonists in combination with standard-of-care drugs and investigational agents in solid tumor complex spheroid models. Complex spheroids include a stromal component modeled by human endothelial cells (HUVEC) and fibroblasts modeled by human mesenchymal stem cells (MSCs). The concentration ranges selected for each drug and investigational agent were based upon clinically achievable concentrations if the clinical Cmax of the agent was known.
Compounds. The drugs and investigational agents: BAY 2416964 (NSC825713), GNF351 (NSC835774), CH-223191 (NSC835775), CPI-455 (NSC825282), aza-TdCyd (NSC777586), decitabine (NSC127716), belinostat (NSC758774), entinostat (NSC756642), pevonedistat (NSC761192), tazemetostat (NSC777109), talazoparib (NSC765396), olaparib (NSC753686), selinexor (NSC780203), nedisertib (M3814, NSC802822), bortezomib (NSC756655), venetoclax (NSC766270), doxorubicin (NSC123127), elimusertib (BAY189344, NSC800525), ceralasertib (AZD6738, NSC777638), TAK-243 (NSC785004), alisertib (NSC759677), etoposide (NSC141540), topotecan (NSC609699), eribulin (NSC707389), gemcitabine (NSC613327), carboplatin (NSC241240), cisplatin (NSC119875), and SN-38 (NSC673596) were obtained from the National Cancer Institute (NCI) Developmental Therapeutics Program Chemical Repository (32). The FDA-approved anticancer drug set is available from the Developmental Therapeutics Program at https://dtp.cancer.gov/organization/dscb/obtaining/available plates.htm. […] The stock solutions were prepared in dimethyl sulfoxide (DMSO, Sigma-Aldrich, St. Louis, MO, cat. D2650), except for the platinum compounds which were prepared in saline (Quality Biological, Gaithersburg, MD, cat. 114-055-101), at 800-fold the tested concentration and stored at -70 degrees C prior to their use. All drugs and investigational agents were tested over a range starting from a high concentration at or near the clinical Cmax and decreasing in half-log increments. If the clinical Cmax for an agent had not been determined, the highest concentration tested was 10 microM (Table 1).
Cell Culture. All cells were maintained in an incubator at 37 degrees C and 5% CO2 with 95% humidity. The PDC lines were cultured according to standard operating procedures established by the NCI PDMR (https://pdmr.cancer.gov). Briefly, all PDCs were thawed and cultured in Matrigel-coated flasks prepared with a working solution of 1X Ham's F-12 nutrient mix, without supplementation (Invitrogen, Waltham, MA, cat. 11765054), 100 U/mL penicillin-streptomycin (Invitrogen, cat. 15140122), and 2.5% Matrigel (Corning Inc., Corning, NY, cat. 354248) for the first three passages. All PDCs were cultured in complete DMEM/F-12 media containing advanced DMEM/F-12 (Invitrogen, cat. 12634028), 4.9% defined fetal bovine serum, heat inactivated (HyClone Laboratories Inc., Logan, UT, cat. SH30070.03HI), 389 ng/mL hydrocortisone (Sigma-Aldrich, cat. H4001), 9.7 ng/mL human EGF recombinant protein (Invitrogen, cat. PHG0313), 23.4 microg/mL adenine (Sigma-Aldrich, cat. A2786), 97.3 U/mL penicillin-streptomycin (Invitrogen, cat. 15140122), 1.9 mM L-glutamine (Invitrogen, cat. 25030081), and 9.7 microM Y-27632 dihydrochloride (Tocris Bioscience, Bristol, United Kingdom, cat. 1254). The PDCs were cultured in complete DMEM/F12 media without 10 microM Y-27632 dihydrochloride for at least two passages prior to the screen. The established cell lines NCI-H1341 and […] were cultured in DMEM/F-12, HEPES (Invitrogen, cat. 11330032), 5% defined fetal bovine serum (HyClone Laboratories Inc., cat. SH30070.03), ITS premix universal culture supplement [insulin (5 microg/mL), transferrin (5 microg/mL), and selenious acid (5 ng/mL)] […]

[1] = second compound 0.1 µM, first compound 0.00316 µM
[2] = second compound 0.1 µM, first compound 0.01 µM
[3] = second compound 0.1 µM, first compound 0.0316 µM
[4] = second compound 0.1 µM, first compound 0.1 µM
[5] = second compound 0.316 µM, first compound 0.00316 µM
[6] = second compound 0.316 µM, first compound 0.01 µM
[7] = second compound 0.316 µM, first compound 0.0316 µM
[8] = second compound 0.316 µM, first compound 0.1 µM
[9] = second compound 1 µM, first compound 0.00316 µM
[10] = second compound 1 µM, first compound 0.01 µM
[11] = second compound 1 µM, first compound 0.0316 µM
[12] = second compound 1 µM, first compound 0.1 µM
[13] = second compound 3.16 µM, first compound 0.00316 µM
[14] = second compound 3.16 µM, first compound 0.01 µM
[15] = second compound 3.16 µM, first compound 0.0316 µM
[16] = second compound 3.16 µM, first compound 0.1 µM
[17] = second compound 10 µM, first compound 0.00316 µM
[18] = second compound 10 µM, first compound 0.01 µM
[19] = second compound 10 µM, first compound 0.0316 µM
[20] = second compound 10 µM, first compound 0.1 µM
[21] = second compound 0.1 µM, first compound 0.316 µM
[22] = second compound 0.1 µM, first compound 1 µM
[23] = second compound 0.1 µM, first compound 3.16 µM
[24] = second compound 0.1 µM, first compound 10 µM
[25] = second compound 0.316 µM, first compound 0.316 µM
[26] = second compound 0.316 µM, first compound 1 µM
[27] = second compound 0.316 µM, first compound 3.16 µM
[28] = second compound 0.316 µM, first compound 10 µM
[29] = second compound 1 µM, first compound 0.316 µM
[30] = second compound 1 µM, first compound 1 µM
[31] = second compound 1 µM, first compound 3.16 µM
[32] = second compound 1 µM, first compound 10 µM
[33] = second compound 3.16 µM, first compound 0.316 µM
[34] = second compound 3.16 µM, first compound 1 µM
[35] = second compound 3.16 µM, first compound 3.16 µM
[36] = second compound 3.16 µM, first compound 10 µM
[37] = second compound 10 µM, first compound 0.316 µM
[38] = second compound 10 µM, first compound 1 µM
[39] = second compound 10 µM, first compound 3.16 µM
[40] = second compound 10 µM, first compound 10 µM

SMILES	IC50 (second compound 0.1 µM) [nM]	IC50 (second compound 0.316 µM) [nM]	IC50 (second compound 1 µM) [nM]	IC50 (second compound 3.16 µM) [nM]	IC50 (second compound 10 µM) [nM]	viability, T/C [3] [%]	viability, T/C [4] [%]	viability, T/C [7] [%]	viability, T/C [8] [%]	viability, T/C [11] [%]	viability, T/C [12] [%]	viability, T/C [15] [%]	viability, T/C [16] [%]	viability, T/C [19] [%]	viability, T/C [20] [%]	viability, T/C [21] [%]	viability, T/C [22] [%]	viability, T/C [25] [%]	viability, T/C [26] [%]	viability, T/C [29] [%]	other results
CC[C@@]1(O)C(=O)OCc2c1cc1n(c2=O)Cc2cc3c(CN(C)C)c(O)ccc3nc2-1 + CC(CO)NC(=O)c1cc(-c2ccc(Cl)cc2)nn(-c2cnn(C)c2)c1=O	> 100	> 100	> 100	> 100	> 100	65.8	58	68.2	50.2	57.2	62.8	61.8	53.5	60.2	51.9	–	–	–	–	–	viability, T/C (second compound 0.1 µM, first compound 0.000316 µM): 93.6%; viability, T/C (second compound 0.1 µM, first compound 0.001 µM): 91.3%; viability, T/C [1]: 75.2%; viability, T/C [2]: 81.6%; viability, T/C (second compound 0.316 µM, first compound 0.000316 µM): 92.9%; viability, T/C (second compound 0.316 µM, first compound 0.001 µM): 70.6%; viability, T/C [5]: 91.1%; viability, T/C [6]: 87.4%; viability, T/C (second compound 1 µM, first compound 0.000316 µM): 81%; viability, T/C (second compound 1 µM, first compound 0.001 µM): 73.6%; viability, T/C [9]: 84.4%; viability, T/C [10]: 87%; viability, T/C (second compound 3.16 µM, first compound 0.000316 µM): 77.9%; viability, T/C (second compound 3.16 µM, first compound 0.001 µM): 85.2%; viability, T/C [13]: 69.8%; viability, T/C [14]: 61.6%; viability, T/C (second compound 10 µM, first compound 0.000316 µM): 75.8%; viability, T/C (second compound 10 µM, first compound 0.001 µM): 73.8%; viability, T/C [17]: 63.5%; viability, T/C [18]: 69.3%
COc1cc(C2c3cc4c(cc3C(OC3OC5COC(C)OC5C(O)C3O)C3COC(=O)C23)OCO4)cc(OC)c1O (stereo not given) + CC(CO)NC(=O)c1cc(-c2ccc(Cl)cc2)nn(-c2cnn(C)c2)c1=O	9250	5010	8480	3030	2910	78.3	74.3	93.5	77.6	64.7	78.5	70.9	68	71.1	65	66.5	72.7	60.4	57.9	59.4	viability, T/C [23]: 57.1%; viability, T/C [24]: 49.5%; viability, T/C [27]: 56%; viability, T/C [28]: 44.5%; viability, T/C [30]: 60.1%; viability, T/C [31]: 61.6%; viability, T/C [32]: 47.7%; viability, T/C [33]: 59.6%; viability, T/C [34]: 45.2%; viability, T/C [35]: 59.2%; viability, T/C [36]: 43.6%; viability, T/C [37]: 50.7%; viability, T/C [38]: 63.7%; viability, T/C [39]: 43.4%; viability, T/C [40]: 48.3%
COc1cccc2c1C(=O)c1c(O)c3c(c(O)c1C2=O)CC(O)(C(=O)CO)CC3OC1CC(N)C(O)C(C)O1 (stereo not given) + CC(CO)NC(=O)c1cc(-c2ccc(Cl)cc2)nn(-c2cnn(C)c2)c1=O	348	136	151	337	165	62.5	67.7	49.2	61.1	72	52.9	68.6	54	58.7	61.3	54	5.59	35.6	4	39.2	viability, T/C [23]: 1.72%; viability, T/C [24]: 3.58%; viability, T/C [27]: 1.69%; viability, T/C [28]: 2.61%; viability, T/C [30]: 3.81%; viability, T/C [31]: 1.11%; viability, T/C [32]: 2.5%; viability, T/C [33]: 52.8%; viability, T/C [34]: 1.66%; viability, T/C [35]: 2.16%; viability, T/C [36]: 2.9%; viability, T/C [37]: 37%; viability, T/C [38]: 0.78%; viability, T/C [39]: 1.79%; viability, T/C [40]: 3.41%
Nc1ncn(C2CC(O)C(CO)O2)c(=O)n1 (stereo not given) + CC(CO)NC(=O)c1cc(-c2ccc(Cl)cc2)nn(-c2cnn(C)c2)c1=O	> 1000	> 1000	> 1000	> 1000	> 1000	80	75.9	77.5	79.7	81.6	75.1	79.3	67.1	67.5	67.2	93	66.8	62.1	105	75.8	viability, T/C [1]: 73.8%; viability, T/C [2]: 85.4%; viability, T/C [5]: 78.2%; viability, T/C [6]: 88%; viability, T/C [9]: 76%; viability, T/C [10]: 79.7%; viability, T/C [30]: 76.1%; viability, T/C [13]: 60%; viability, T/C [14]: 81%; viability, T/C [33]: 68.8%; viability, T/C [34]: 78%; viability, T/C [17]: 65.9%; viability, T/C [18]: 66.5%; viability, T/C [37]: 59.1%; viability, T/C [38]: 54.6%
